# Laboratory results taken from patent US20070203098A1, “Pten Inhibitors” (priority 2004, published 2007).
# Where a name gives a salt, the structure may show the parent alone. Read-outs that look alike come from different tables or passages of the source.
# Legend:
# Assay type in all cases: biochemical
# [1] = target: T1, PTEN (Homo sapiens, UniProt P60484); test: PTEN Inhibition Assay: General Screening
# [2] = target: T1, PTEN; test: PTEN Inhibition Assay: IC50 Determinations
# [3] = target: T2, PTP1B (Homo sapiens, UniProt P18031); test: PTP1B Inhibition Assay: IC50 Determinations
# T2 sequence (P18031 1-435): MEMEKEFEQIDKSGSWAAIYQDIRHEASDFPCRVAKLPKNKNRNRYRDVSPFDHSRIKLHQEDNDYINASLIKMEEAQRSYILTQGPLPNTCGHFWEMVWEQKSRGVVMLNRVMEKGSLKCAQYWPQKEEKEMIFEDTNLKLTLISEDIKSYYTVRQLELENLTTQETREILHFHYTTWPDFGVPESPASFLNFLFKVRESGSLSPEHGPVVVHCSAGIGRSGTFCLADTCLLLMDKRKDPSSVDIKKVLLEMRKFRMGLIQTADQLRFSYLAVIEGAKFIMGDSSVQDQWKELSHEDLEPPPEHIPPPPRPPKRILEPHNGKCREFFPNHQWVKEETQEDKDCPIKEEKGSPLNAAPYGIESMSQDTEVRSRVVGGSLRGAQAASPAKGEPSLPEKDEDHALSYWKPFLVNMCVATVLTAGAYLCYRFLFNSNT
# [4] = read-out: % Inhibition at 250 uM
# [5] = 250 uM, Table 23 polyamides, read-out: % Inhibition @250 uM
# [6] = 250 uM, Table 15 diamides, furazan core, read-out: % Inhibition @ 250 uM
# [7] = 250 uM, Table 24 known PTP inhibitors, read-out: % Inhibition at 250 uM
# [8] = 250 uM, Table 22 imidazoles, read-out: % Inhibition at 250 uM
# [9] = read-out: % Inhibition @ 250 uM
# [10] = 250 uM, Table 27 isatins, read-out: % Inhibition @250 uM
# T1 sequence (P60484 whole entry, species assumed): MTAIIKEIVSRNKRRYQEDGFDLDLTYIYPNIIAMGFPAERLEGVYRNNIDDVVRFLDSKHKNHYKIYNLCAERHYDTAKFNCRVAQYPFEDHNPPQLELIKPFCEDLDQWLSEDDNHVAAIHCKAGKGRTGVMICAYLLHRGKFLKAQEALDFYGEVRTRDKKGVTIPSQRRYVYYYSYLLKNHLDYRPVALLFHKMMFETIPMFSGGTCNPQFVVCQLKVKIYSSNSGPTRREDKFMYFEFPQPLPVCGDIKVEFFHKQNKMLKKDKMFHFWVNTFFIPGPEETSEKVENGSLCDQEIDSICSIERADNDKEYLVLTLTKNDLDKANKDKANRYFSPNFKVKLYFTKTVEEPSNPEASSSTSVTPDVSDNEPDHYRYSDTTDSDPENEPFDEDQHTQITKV
compound,measurement,setting,value
"CC(C)=C[C@@H]1[C@H](C(=O)OCc2coc(Cc3ccccc3)c2)C1(C)C (mixture of isomers) [SF1671-000, 5-Benzyl-3-furylmethyl (1R,S)-cis,trans-chrysanthemate, reference compound]",inhibition at 250 µM,[1]; [4],9.6%
"CC1(C)C(C=C(Cl)Cl)[C@H]1C(=O)O[C@@H](C#N)c1cccc(Oc2ccccc2)c1 (stereo in doubt) [SF1687-000, Cypermethrin, reference compound]",inhibition at 250 µM,[1]; [4],-5.9%
"NCCCC(O)(P(=O)([O-])O)P(=O)(O)O.[Na+] [CC1669-100, Alendronate, Sodium, Trihydrate, reference compound]",% Inhibition @ 250 uM in PTEN Assay,[1],minimal activity
same,inhibition at 250 µM,[1]; read-out: % Inhibition @ 250 uM in PTEN Assay,-0.9 to 20%
O=C(CCC(=O)NNC(=O)COc1ccc(Cl)cc1)NNC(=O)COc1ccc(Cl)cc1 [SF1516-000],inhibition at 250 µM,[1]; [5],35.3%
CCOC(=O)CNC(=O)C(c1ccc(O)cc1)N(C(=O)c1snc(C(N)=O)c1N)c1ccc2c(c1)OCO2 (centres unmarked) [SF1552-000],inhibition at 250 µM,[1]; [5],52.4%
CCOC(=O)CNC(=O)C(c1ccc2ncccc2c1)N(CC1CCCO1)C(=O)c1snc(C(N)=O)c1N (centres unmarked) [SF1566-000],inhibition at 250 µM,[1]; [5],70.6%
Nc1nonc1NC(=O)N/N=C/CCC/C=N/NC(=O)Nc1nonc1N [SF1567-000],inhibition at 250 µM,[1]; [5],60.2%
Cc1ccc(C)c(OCC(=O)Nc2nonc2NC(=O)COc2cc(C)ccc2C)c1 [SF1609-000],inhibition at 250 µM,[1]; [6],58 to 80%
same,IC50,"[2]; Table 29, read-out: PTEN IC50",80 to 113 µM
same,IC50,"[3]; Table 29, read-out: PTP1B IC50",5.8 µM
CC(C)c1ccccc1OCC(=O)Nc1nonc1NC(=O)COc1ccccc1C(C)C [SF1617-000],inhibition at 250 µM,[1]; [6],3 to 81%
same,IC50,"[2]; Table 29, read-out: PTEN IC50",66 to 84 µM
same,IC50,"[3]; Table 29, read-out: PTP1B IC50",13.6 µM
O=C(COc1ccccc1)NC1CCCCC1NC(=O)COc1ccccc1 (centres unmarked) [SF1647-000],inhibition at 250 µM,"[1]; 250 uM, Table 16, read-out: % Inhibition @ 250 uM",2.2%
"CC1(C)[C@H](C=C(Br)Br)[C@@H]1C(=O)OC(C#N)c1cccc(Oc2ccccc2)c1 (some centres unmarked) [SF1667-000, Deltamethrin, reference compound]",inhibition at 250 µM,[1]; [4],0.3%
"Cc1ccc(C(=O)Nc2ccc(S(=O)(=O)O)c3cc(S(=O)(=O)O)cc(S(=O)(=O)O)c23)cc1NC(=O)c1cccc(NC(=O)Nc2cccc(C(=O)Nc3cc(C(=O)Nc4ccc(S(=O)(=O)O)c5cc(S(=O)(=O)O)cc(S(=O)(=O)O)c45)ccc3C)c2)c1 [SF1672-100, Suramin, Sodium Salt, reference compound]",inhibition at 250 µM,[1]; [7],-9.9%
"CC12CCC(C)(O1)C(C(=O)O)C2C(=O)O (centres unmarked) [SF1676-000, 1,4-Dimethylendothall, reference compound]",inhibition at 250 µM,[1]; [4],3.3%
"CC1(C(=O)O)C2CCC(O2)C1(C)C(=O)O (centres unmarked) [SF1679-000, Cantharidic Acid, reference compound]",inhibition at 250 µM,[1]; [4],2.7%
"CCN(N=O)c1ccc(O)c(O)c1 [SF1681-000, 3,4-Dephostatin, Ethyl-, reference compound]",inhibition at 250 µM,[1]; [4],82.4%
same,IC50,[2],50 µM
same,IC50,[3],50 µM
"CC(C)C(C(=O)OC(C#N)c1cccc(Oc2ccccc2)c1)c1ccc(Cl)cc1 (centres unmarked) [SF1683-000, Fenvalerate, reference compound]",inhibition at 250 µM,[1]; [4],-25.5%
"O=P(O)(O)Oc1cccc2ccccc12 [SF1684-100, α-Naphthyl Acid Phosphate, Monosodium Salt, reference compound]",inhibition at 250 µM,[1]; [4],11.2%
"O=P(O)(O)OC(CO)CO [SF1685-100, β-Glycerophosphate, Disodium Salt, Pentahydrate, reference compound]",inhibition at 250 µM,[1]; [7],10.9%
"O=C(O)[C@@H]1[C@H](C(=O)O)[C@H]2CC[C@@H]1O2 [SF1686-000, Endothall, reference compound]",inhibition at 250 µM,[1]; [4],-1.2%
Cc1cccc(-n2cnc(C(=O)NNC(=O)c3ccc(C(C)(C)C)cc3)c2)n1 [SF1708-000],inhibition at 250 µM,[1]; [8],57 to 95%
same,IC50,"[2]; Table 29, read-out: PTEN IC50",50 µM
same,IC50,"[3]; Table 29, read-out: PTP1B IC50",60 µM
O=C1C(=O)c2ccccc2-c2ccccc21 [SF1721-000],inhibition at 250 µM,[1]; [9],99.7%
same,IC50,[2],3.4 µM
same,IC50,[3],17 µM
O=C1C(=O)c2cc([N+](=O)[O-])ccc2-c2ccccc21 [SF1722-000],inhibition at 250 µM,[1]; [9],99.3%
same,IC50,[2],4 µM
CC(C)(C)c1ccc(C(=O)NNC(=O)c2ccc(C(C)(C)C)cc2)cc1 [SF1733-000],inhibition at 250 µM,[1]; [8],15.9%
Oc1cc2ccccc2c2ccccc12 [SF1734-000],IC50,[2],33 µM
O=C1CC(S(=O)(=O)O)c2ccccc2C1=O (centres unmarked) [SF1735-000],IC50,"[2]; Table 28, read-out: PTEN IC50",20 µM
same,IC50,"[3]; Table 29, read-out: PTP1B IC50",> 250 µM
O=C1C=Cc2ccccc2C1=O [SF1736-000],IC50,[2],21 µM
O=C1C=CC(=O)c2ccccc21 [SF1737-000],IC50,[2],43 µM
COc1ccc(OCC(=O)Nc2ccc3c(c2)C(=O)C(=O)c2ccccc2-3)cc1 [SF1751-000],inhibition at 250 µM,[1]; [9],99.2%
same,IC50,"[2]; Table 29, read-out: PTEN IC50",0.3 µM
same,IC50,"[3]; Table 29, read-out: PTP1B IC50",3 µM
Cc1ccc(OCC(=O)Nc2ccc3c(c2)C(=O)C(=O)c2ccccc2-3)cc1 [SF1771-000],inhibition at 250 µM,[1]; [9],99.2%
same,IC50,[2],0.395 µM
same,IC50,[3],0.442 µM
CC(C)c1ccccc1OCC(=O)Nc1ccc2c(c1)C(=O)C(=O)c1ccccc1-2 [SF1772-000],inhibition at 250 µM,[1]; [9],99.4%
same,IC50,"[2]; Table 29, read-out: PTEN IC50",0.435 µM
same,IC50,"[3]; Table 29, read-out: PTP1B IC50",0.681 µM
O=C1C(=O)c2cc(NS(=O)(=O)c3ccc([N+](=O)[O-])cc3)ccc2-c2ccccc21 [SF1774-000],inhibition at 250 µM,[1]; [9],98.6%
same,IC50,"[2]; Table 29, read-out: PTEN IC50",0.214 µM
same,IC50,"[3]; Table 29, read-out: PTP1B IC50",0.331 µM
Cc1ccc(C(=O)Nc2ccc3c(c2)C(=O)C(=O)N3)cc1 [SF1778-000],inhibition at 250 µM,[1]; [10],98.5%
same,IC50,"[2]; Table 29, read-out: PTEN IC50",22.1 µM
same,IC50,"[3]; Table 29, read-out: PTP1B IC50",11 µM
CC(C)(C)c1ccc(S(=O)(=O)Nc2ccc3c(c2)C(=O)C(=O)c2ccccc2-3)cc1 [SF1780-000],inhibition at 250 µM,[1]; [9],98%
same,IC50,"[2]; Table 29, read-out: PTEN IC50",0.269 µM
same,IC50,"[3]; Table 29, read-out: PTP1B IC50",0.12 µM
O=C(COc1ccccc1)Nc1ccc2c(c1)C(=O)C(=O)N2 [SF1781-000],inhibition at 250 µM,[1]; [10],97.8%
same,IC50,"[2]; Table 29, read-out: PTEN IC50",18.9 µM
same,IC50,"[3]; Table 29, read-out: PTP1B IC50",0.294 µM
O=C1C(=O)N(Cc2ccc(Cl)cc2Cl)c2ccc([N+](=O)[O-])cc21 [SF1783-000],inhibition at 250 µM,[1]; [10],97.8%
same,IC50,"[2]; Table 29, read-out: PTEN IC50",4.6 µM
same,IC50,"[3]; Table 29, read-out: PTP1B IC50",1.1 µM
O=C(CCCc1ccccc1)Nc1ccc2c(c1)C(=O)C(=O)c1ccccc1-2 [SF1785-000],inhibition at 250 µM,[1]; [9],97.9%
same,IC50,[2],5 µM
same,IC50,[3],1 to 10 µM
CCOC(=O)C(=O)Nc1ccc2c(c1)C(=O)C(=O)c1ccccc1-2 [SF1786-000],inhibition at 250 µM,[1]; [9],99.8%
same,IC50,[2],0.692 µM
same,IC50,[3],< 1 µM
COc1ccccc1OCC(=O)Nc1ccc2c(c1)C(=O)C(=O)c1ccccc1-2 [SF1787-000],inhibition at 250 µM,[1]; [9],94.7%
same,IC50,"[2]; Table 29, read-out: PTEN IC50",0.548 µM
same,IC50,"[3]; Table 29, read-out: PTP1B IC50",< 1 µM
COc1cccc(OCC(=O)Nc2ccc3c(c2)C(=O)C(=O)c2ccccc2-3)c1 [SF1788-000],inhibition at 250 µM,[1]; [9],96.9%
same,IC50,"[2]; Table 29, read-out: PTEN IC50",0.41 µM
same,IC50,"[3]; Table 29, read-out: PTP1B IC50",< 1 µM
Nc1ccc2c(c1)C(=O)C(=O)c1ccccc1-2 [SF1789-000],inhibition at 250 µM,[1]; [9],99%
same,IC50,[2],0.776 µM
same,IC50,[3],2.97 µM
O=C(COc1ccc(Cl)cc1)Nc1ccc2c(c1)C(=O)C(=O)c1ccccc1-2 [SF1790-000],inhibition at 250 µM,[1]; [9],99.2%
same,IC50,[2],2.6 µM
same,IC50,[3],1 to 10 µM
O=C(CNc1ccc2c(c1)C(=O)C(=O)c1ccccc1-2)OCc1ccccc1 [SF1807-000],inhibition at 250 µM,[1]; [9],93.9%
same,IC50,[3],< 1 µM
CCOC(=O)Nc1ccc2c(c1)C(=O)C(=O)c1ccccc1-2 [SF1808-000],inhibition at 250 µM,[1]; [9],96.2%
same,IC50,[3],< 1 µM
CCOC(=O)c1cccc(OCC(=O)Nc2ccc3c(c2)C(=O)C(=O)c2ccccc2-3)c1 [SF1811-000],inhibition at 250 µM,[1]; [9],98.6%
O=C(CCc1ccccc1[N+](=O)[O-])Nc1ccc2c(c1)C(=O)C(=O)N2 [SF1812-000],inhibition at 250 µM,[1]; [10],40.5%
same,IC50,"[3]; Table 29, read-out: PTP1B IC50",> 10 µM
O=C1Nc2c(Cl)ccc(Cl)c2C1=O [SF1822-000],inhibition at 250 µM,[1]; [10],97.3%
same,IC50,"[2]; Table 29, read-out: PTEN IC50",24.5 µM
"Monoperoxo(picolinato)oxovanadate(V) [SF1677-000, reference compound]",% Inh. @ 250 uM in PTEN Assay,[1],96.9%
